PMC4232273 (Angewandte Chemie (International Ed. in English), 2014)

Target: New Delhi metallo-β-lactamase subclass 1 (NDM-1) (Klebsiella pneumoniae, UniProt C7C422)
Assay: 1H NMR monitoring of hydrolysis in E. coli cells expressing NDM-1
Assay type: cell-based

Sequence of New Delhi metallo-β-lactamase subclass 1 (NDM-1) (C7C422 29-270, looked up): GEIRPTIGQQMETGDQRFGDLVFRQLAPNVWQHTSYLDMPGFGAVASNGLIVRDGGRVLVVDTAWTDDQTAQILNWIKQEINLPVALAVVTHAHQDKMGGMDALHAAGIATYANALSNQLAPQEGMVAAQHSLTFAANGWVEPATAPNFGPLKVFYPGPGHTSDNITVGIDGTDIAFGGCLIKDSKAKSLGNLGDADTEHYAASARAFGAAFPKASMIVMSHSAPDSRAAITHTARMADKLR

With `C[C@@H](O)[C@H]1C(=O)N2C(C(=O)O)=C(SCCN=CN)C[C@H]12` [imipenem] the “1H NMR monitoring of hydrolysis in E. coli cells expressing NDM-1” value was “These were readily hydrolyzed by the NDM-1 E. coli cells within an hour or so under our experimental conditions”.
